{
  "source": "patent US20070161697A1",
  "about": "“Hydrazide type compounds and the use thereof in pharmaceutical compositions for the treatment of cardiovascular diseases” (priority 2004, published 2007)",
  "test_system": "ApoE negative mice",
  "test": "Weight gain / abdominal fatty mass in ApoE negative mice on normal regimen",
  "format": "in vivo",
  "details": "20 μg per day for 41 days; normal dietary regimen; FIG. 2",
  "protocol": "The mice were treated for 41 days at a dose of 20 μg of compound CGP02-01 per day. The control mice and the treated mice were fed with a normal dietary regimen without any cholesterol overload.",
  "data": [
    {"compound": "COc1cc(O)c(/C=N/NC(=O)c2cc3ccccc3s2)c(OC)c1", "note": "[CGP02-01, N′-[(1E)-(2-hydroxy-4,6-dimethoxyphenyl)methylene]-1-benzothiophene-2-carbohydrazide]", "values": [
      {"measurement": "Weight gain (abdominal fatty mass)", "result": "reduction in weight gain"}
    ]}
  ]
}
